In patent US9216964B2, “Hedgehog pathway modulators” (Novartis AG, priority 2008, dated 2015):
pIC50: −log10 of the molar value.

System: hedgehog signaling pathway
Assay: Gli-Luc Reporter Assay for Hh Pathway Inhibition (TMHh-12 cells, pTA-8×Gli-Luc reporter)
Format: cell-based, Mouse
Settings: Mus musculus, TMHh12, Ag1.5 1 nM; read-out: Hedgehog Inhibition IC50 (nM) (Ag1.5 1 nM)
How it was run: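 Mouse TM3 cells stably carrying an 8×Gli-firefly luciferase reporter, in 2% FBS medium; pathway activated with recombinant mouse Shh (8 μg/mL) or Smo agonist, compounds added at varying concentrations for 48 h. Luminescence read; IC50 at 50% signal reduction. Toxicity checked in TM3 cells (CellTiter-Glo) or constitutive-luciferase TM3-Luc cells.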

Structure (SMILES) | IC50
Cc1ccc(Nc2cccc3c2CCN(S(C)(=O)=O)C3)cc1-c1cc2ccccc2cn1 [Compound 229] | 0.3 nM
COc1ccc(-c2cc(Nc3cccc4c3CCN(C3CS(=O)(=O)C3)C4)ccc2C)nn1 [Compound 276] | 9.8 nM

Same assay, conditions: Mus musculus, TMHh12, enzymatic and cellular assays for the inhibition of hedgehog signaling pathways; read-out: IC50 Ranges

Structure (SMILES) | pIC50
CS(=O)(=O)N1CCc2c(cccc2Nc2ccc(Cl)c(C(=O)Nc3ccccc3)n2)C1 [Compound 226] | 9.00 to 12.00
Cc1ccc(Nc2cccc3c2CCN(S(C)(=O)=O)C3)cc1-c1ncccc1F [Compound 227] | 9.00 to 12.00
Cc1cnc(-c2cc(Nc3cccc4c3CCN(S(C)(=O)=O)C4)ccc2C)c(F)c1 [Compound 228] | 9.00 to 12.00
Cc1ccc(Nc2cccc3c2CCN(S(C)(=O)=O)C3)cc1-c1cc2ccccc2cn1 [Compound 229] | 9.00 to 12.00
COc1ccnc(-c2cc(Nc3cccc4c3CCN(S(C)(=O)=O)C4)ccc2C)c1 [Compound 230] | 9.00 to 12.00
Cc1ccc(Nc2cccc3c2CCN(S(C)(=O)=O)C3)cc1-c1ccc2ccccc2n1 [Compound 231] | 9.00 to 12.00
Cc1ccc(Nc2cccc3c2CCN(CCS(C)(=O)=O)C3)cc1-c1ccc(F)cn1 [Compound 232] | 8.00 to 9.00
Cc1ccc(-c2cc(Nc3cccc4c3CCN(CC(=O)N(C)C)C4)ccc2C)nc1 [Compound 233] | 8.00 to 9.00
Cc1ccc(Nc2cccc3c2CCN(C2CCS(=O)(=O)CC2)C3)cc1-c1ccc(F)cn1 [Compound 234] | 9.00 to 12.00
Cc1ccc(-c2cc(Nc3cccc4c3CCN(C3CCS(=O)(=O)CC3)C4)ccc2C)nc1 [Compound 235] | 9.00 to 12.00
Cc1ccc(-c2cc(Nc3nccc4c3CCN(S(C)(=O)=O)C4)ccc2C)nc1 [Compound 236] | 7.00 to 8.00
Cc1ccc(Nc2cccc3c2CCN(S(C)(=O)=O)C3)cc1COc1ccccn1 [Compound 237] | 6.00 to 7.00
COc1ccnc(-c2cc(Nc3cccc4c3CCN(S(C)(=O)=O)C4)ccc2C)n1 [Compound 239] | 7.00 to 8.00
Cc1cnc(-c2cc(Nc3cccc4c3CCN(S(C)(=O)=O)C4)ccc2C)cc1C [Compound 241] | 9.00 to 12.00
Cc1ccc(Nc2nccc3c2CCN(S(C)(=O)=O)C3)cc1-c1ccc(F)cn1 [Compound 244] | 6.00 to 7.00
Cc1ccc(Nc2cccc3c2CCN(CCS(C)(=O)=O)C3)cc1-c1ccc(C#N)cn1 [Compound 245] | 8.00 to 9.00
Cc1ccc(Nc2cccc3c2CCN(CCS(C)(=O)=O)C3)cc1C(=O)Nc1ccccc1 [Compound 246] | 7.00 to 8.00
Cc1ccc(Nc2nccc3c2CCN(S(C)(=O)=O)C3)cc1C(=O)Nc1ccccc1 [Compound 247] | 7.00 to 8.00
Cc1ccc(-c2cc(Nc3ncnc4c3CCN(S(C)(=O)=O)C4)ccc2C)nc1 [Compound 248] | 8.00 to 9.00
Cc1ccc(Nc2cccc3c2CCN(C2CCS(=O)(=O)C2)C3)cc1-c1ccc(F)cn1 (stereo not shown) [Compound 250] | 9.00 to 12.00
Cc1ccc(-c2cc(Nc3cccc4c3CCN(CCC(F)(F)F)C4)ccc2C)nc1 [Compound 251] | 9.00 to 12.00
Cc1ccc(Nc2cccc3c2CCN(CCC(F)(F)F)C3)cc1-c1ccc(F)cn1 [Compound 252] | 9.00 to 12.00
Cc1ccc(Nc2cccc3c2CCN(S(C)(=O)=O)C3)cc1-c1cnc(N(C)C)cn1 [Compound 253] | 8.00 to 9.00
Cc1ccc(Nc2cccc3c2CCN(S(C)(=O)=O)C3)cc1-c1ccc(N(C)C)nn1 [Compound 254] | 8.00 to 9.00
COc1cncc(-c2cc(Nc3cccc4c3CCN(S(C)(=O)=O)C4)ccc2C)n1 [Compound 255] | 6.00 to 7.00
COc1ccc(-c2cc(Nc3cccc4c3CCN(C3CCS(=O)(=O)C3)C4)ccc2C)nn1 (stereo not shown) [Compound 256] | 9.00 to 12.00

Structure (SMILES) | pIC50
Cc1ccc(Nc2cccc3c2CCN(CCS(C)(=O)=O)C3)cc1-c1ccc(Cl)cn1 [Compound 257] | 9.00 to 12.00
COc1ccc(-c2cc(Nc3cccc4c3CCN(CCS(C)(=O)=O)C4)ccc2C)nn1 [Compound 258] | 8.00 to 9.00
Cc1ccc(Nc2cccc3c2CCN(CCS(C)(=O)=O)C3)cc1-c1ccc(C(F)(F)F)cn1 [Compound 259] | 8.00 to 9.00
Cc1ccc(Nc2cccc3c2CCN(CCS(C)(=O)=O)C3)cc1-c1ncccc1F [Compound 260] | 8.00 to 9.00
CCS(=O)(=O)CCN1CCc2c(cccc2Nc2ccc(C)c(-c3ccc(C)cn3)c2)C1 [Compound 261] | 9.00 to 12.00
Cc1ccc(Nc2cccc3c2CCN(CCS(C)(=O)=O)C3)cc1-c1ccccn1 [Compound 262] | 8.00 to 9.00
Cc1cnc(-c2cc(Nc3cccc4c3CCN(CCS(C)(=O)=O)C4)ccc2C)nc1 [Compound 263] | 6.00 to 7.00
COc1cnc(-c2cc(Nc3cccc4c3CCN(CCS(C)(=O)=O)C4)ccc2C)cn1 [Compound 264] | 8.00 to 9.00
Cc1ccc(Nc2cccc3c2CCN(C2CCS(=O)(=O)C2)C3)cc1-c1ccccn1 (stereo not shown) [Compound 265] | 9.00 to 12.00
COc1cnc(-c2cc(Nc3cccc4c3CCN(C3CCS(=O)(=O)C3)C4)ccc2C)cn1 (stereo not shown) [Compound 266] | 8.00 to 9.00
Cc1cnc(-c2cc(Nc3cccc4c3CCN(C3CCS(=O)(=O)C3)C4)ccc2C)nc1 (stereo not shown) [Compound 267] | 7.00 to 8.00
Cc1ccc(Nc2cccc3c2CCN(C2CCS(=O)(=O)C2)C3)cc1-c1ncccc1F (stereo not shown) [Compound 268] | 9.00 to 12.00
Cc1ccc(Nc2cccc3c2CCN(C2CCS(=O)(=O)CC2)C3)cc1-c1ncccc1F [Compound 269] | 9.00 to 12.00
COc1cnnc(-c2cc(Nc3cccc4c3CCN(S(C)(=O)=O)C4)ccc2C)c1 [Compound 270] | 7.00 to 8.00
CCOc1ccc(-c2cc(Nc3cccc4c3CCN(S(C)(=O)=O)C4)ccc2C)nn1 [Compound 271] | 9.00 to 12.00
Cc1ccc(Nc2cccc3c2CCN(S(C)(=O)=O)C3)cc1-c1ncc(F)cc1F [Compound 272] | 8.00 to 9.00
Cc1ccc(-c2nc(Nc3cccc4c3CCN(S(C)(=O)=O)C4)ccc2Cl)nc1 [Compound 273] | 9.00 to 12.00
Cc1ccc(-c2nc(Nc3cccc4c3CCN(S(C)(=O)=O)C4)ccc2C)nc1 [Compound 274] | 9.00 to 12.00
Cc1ccc(Nc2cccc3c2CCN(C2CS(=O)(=O)C2)C3)cc1-c1ncccc1F [Compound 275] | 8.00 to 9.00
COc1ccc(-c2cc(Nc3cccc4c3CCN(C3CS(=O)(=O)C3)C4)ccc2C)nn1 [Compound 276] | 8.00 to 9.00
Cc1ccc(-c2cc(Nc3ncnc4c3CCN(C3CCS(=O)(=O)CC3)C4)ccc2C)nc1 [Compound 277] | 7.00 to 8.00
Cc1ccc(-c2nc(Nc3cccc4c3CCN(CCS(C)(=O)=O)C4)ccc2Cl)nc1 [Compound 278] | 8.00 to 9.00
Cc1ccc(-c2cc(Nc3cccc4c3CCN([C@@H]3CCS(=O)(=O)C3)C4)ccc2C)nc1 [Compound 279] | 9.00 to 12.00
Cc1ccc(-c2cc(Nc3cccc4c3CCN([C@H]3CCS(=O)(=O)C3)C4)ccc2C)nc1 [Compound 280] | 9.00 to 12.00
CCS(=O)(=O)CCN1CCc2c(cccc2Nc2ccc(C)c(-c3ccc(F)cn3)c2)C1 [Compound 281] | 8.00 to 9.00
CCS(=O)(=O)CCN1CCc2c(cccc2Nc2ccc(C)c(-c3ccc(OC)nn3)c2)C1 [Compound 282] | 8.00 to 9.00

Structure (SMILES) | pIC50
CCS(=O)(=O)CCN1CCc2c(cccc2Nc2ccc(C)c(-c3ncccc3F)c2)C1 [Compound 283] | 8.00 to 9.00
Cc1ccc(-c2nc(Nc3cccc4c3CCN(C3CS(=O)(=O)C3)C4)ccc2C)nc1 [Compound 285] | 7.00 to 8.00
Cc1ccc(Nc2cccc3c2CCN([C@H]2CCS(=O)(=O)C2)C3)cc1-c1ncccc1F [Compound 286] | 9.00 to 12.00
Cc1ccc(-c2cc(Nc3ncnc4c3CCN(C3CS(=O)(=O)C3)C4)ccc2C)nc1 [Compound 288] | 7.00 to 8.00
Cc1ccc(Nc2cccc3c2CCN(S(=O)(=O)CCN(C)C)C3)cc1-c1ncccc1F [Compound 289] | 9.00 to 12.00
Cc1ccc(Nc2cccc3c2CCN(S(C)(=O)=O)C3)cc1-c1ncc(Cl)cc1F [Compound 290] | 9.00 to 12.00
Cc1ccc(Nc2cccc3c2CCN(S(C)(=O)=O)C3)cc1-c1ccc(N(C)C)cn1 [Compound 291] | 9.00 to 12.00
Cc1ccc(-c2cc(Nc3ncnc4c3CCN(S(=O)(=O)C(C)C)C4)ccc2C)nc1 [Compound 292] | 8.00 to 9.00
CCS(=O)(=O)N1CCc2c(ncnc2Nc2ccc(C)c(-c3ccc(C)cn3)c2)C1 [Compound 293] | 9.00 to 12.00
CCOc1ccc(-c2cc(Nc3cccc4c3CCN(CCS(C)(=O)=O)C4)ccc2C)nn1 [Compound 294] | 8.00 to 9.00
CCOc1ccc(-c2cc(Nc3cccc4c3CCN(C3CS(=O)(=O)C3)C4)ccc2C)nn1 [Compound 295] | 8.00 to 9.00
CCOc1ccc(-c2cc(Nc3cccc4c3CCN(C3CCS(=O)(=O)C3)C4)ccc2C)nn1 (stereo not shown) [Compound 296] | 8.00 to 9.00
CCOc1ccc(-c2cc(Nc3cccc4c3CCN(CCS(=O)(=O)CC)C4)ccc2C)nn1 [Compound 297] | 8.00 to 9.00
Cc1ccc(Nc2ncnc3c2CCN(S(C)(=O)=O)C3)cc1-c1ccc(F)cn1 [Compound 298] | 7.00 to 8.00
CCS(=O)(=O)N1CCc2c(ncnc2Nc2ccc(C)c(-c3ccc(F)cn3)c2)C1 [Compound 299] | 9.00 to 12.00
Cc1ccc(Nc2ncnc3c2CCN(S(=O)(=O)C(C)C)C3)cc1-c1ccc(F)cn1 [Compound 300] | 9.00 to 12.00
Cc1ccc(Nc2ncnc3c2CCN(S(C)(=O)=O)C3)cc1C(=O)Nc1ccccc1 [Compound 301] | 6.00 to 7.00
CS(=O)(=O)CCN1CCc2c(cccc2Nc2ccc(Cl)c(-c3ccc(F)cn3)n2)C1 [Compound 302] | 7.00 to 8.00
CS(=O)(=O)N1CCc2c(cccc2Nc2ccc(Cl)c(-c3ccc(F)cn3)n2)C1 [Compound 303] | 8.00 to 9.00
Cc1ccc(Nc2ncnc3c2CCN(C2CS(=O)(=O)C2)C3)cc1-c1cc2ccccc2cn1 [Compound 304] | 7.00 to 8.00
Cc1ccc(Nc2ncnc3c2CCN(CCS(C)(=O)=O)C3)cc1-c1cc2ccccc2cn1 [Compound 305] | 7.00 to 8.00
COc1ccc(-c2cc(Nc3cccc4c3CCN(C3CCS(=O)(=O)CC3)C4)ccc2C)nn1 [Compound 306] | 8.00 to 9.00
Cc1ccc(Nc2ncnc3c2CCN(S(C)(=O)=O)C3)cc1-c1cc2ccccc2cn1 [Compound 307] | 9.00 to 12.00
CCOc1cnc(-c2cc(Nc3cccc4c3CCN(C3CCS(=O)(=O)C3)C4)ccc2C)cn1 (stereo not shown) [Compound 308] | 8.00 to 9.00

Same assay, conditions: enzymatic and cellular assays for the inhibition of hedgehog signaling pathways; read-out: IC50 Ranges

Structure (SMILES) | pIC50
Cc1ccc(Nc2cccc3c2CCN([C@@H]2CCS(=O)(=O)C2)C3)cc1-c1ncccc1F [Compound 287] | 8.00 to 9.00
